Paper PMC7269146, “Jingzhaotoxin-X, a gating modifier of Kv4.2 and Kv4.3 potassium channels purified from the venom of the Chinese tarantula Chilobrachys jingzhao” (The Journal of Venomous Animals and Toxins Including …, 2020)
“Also recorded” adds a separate entry of the source. Where a SMILES comes first, the peptide text is derived from it. Bridges are numbered along the chain shown (N, C = ends).

Tests used:
Nav1.5 = assay: voltage-clamp, Nav1.5 currents; assay type: cell-based, human; conditions: 1 μM; n = 3
Text: Rat cDNA genes encoding Kv4.2 (Accession: NM_031730.2) and Kv4.3 (Accession: AB003587.1) were subcloned to vector pcDNA3.1. In addition, human cDNA genes encoding Nav1.7 (Accession: DQ857292.1) and Nav1.5 (Accession: AB158469.2) were subcloned to vectors pcDNA3.1-mod and pcDNA3.1, separately. Then, Kv4.2, Kv4.3, Nav1.5 and Nav1.7 constructs were transiently transfected into the human embryonic kidney 293t (HEK293t) cells using lipofectamine 2000 (Invitrogen, USA) in accordance with manufacturer protocols. Thereafter, HEK293 cells were inoculated within Dulbecco’s modified Eagle’s medium (DMEM) containing 10% fetal bovine serum (FBS) at 5% CO2 and 37°C. The Kv4.3 channel and the Kv4.2 counterpart were then transfected in the absence of β subunit. Subsequently, cells were incubated with a DNA-lipofectamine mixture (one reporter plasmid for green fluorescence protein and channel constructs) for 4-6 h, and were washed with the fresh medium.
An EPC-10 patch-clamp amplifier (HEKA, Germany) was employed to record the potassium currents at the configuration of whole-cell patch-clamp under an ambient temperature of 22-25°C. The resistance was 2.0-3.0 MΩ when the recording pipette contained a full volume of internal solution (supplemented with 140 mM KCl, 10 mM HEPES, 2.5 mM MgCl2, 5 mM ATP and 11 mM EGTA). […]

[1] = rotarod performance test in mice; assay type: in vivo, mouse (male C57BL/6); conditions: 40 nmol/kg, n = 8; for time on accelerating rotarod: 1 h following treatment, cutoff 300 s
Protocol: In the present study, male C57BL/6 mice weighing 20-25 g were utilized. This study was performed following the Guide for the Care and Use of Laboratory Animals released by the United States National Institutes of Health (US NIH). Our study protocol was approved by the Animal Experiments Ethics Committee at Central Southern University (No. 2018-2-6). Each operation was performed under isoflurane-induced anesthesia to reduce pain and minimize animal suffering. Lumbar puncture was also conducted for intrathecal injection, as described previously. Next, the effect of JZTX-X on nociception was evaluated by assessing the behaviors during the mechanical hyperalgesia process. The JZTX-X-induced mechanical hyperalgesia was investigated by two experiments via various administration routes, including intrathecal and intraplantar injections. Then, animals were challenged via intrathecal (10 µL) or intraplantar (20 µL) injection of JZTX-X (40 nmol/kg). The control group was given a physiological solution, which contained 0.9% NaCl, […].
A rotarod accelerator treadmill (Med Associates Inc., St. Albans, VT) was utilized for rotarod performance tests, so as to determine […] motor function as previously described. Motor learning was also carried out by rotarod tests for evaluating the mice’s capacity to stay on the accelerating rotating drum. In JZTX-X- and saline- groups, all animals were acclimated for 30 min within the testing room, and placed for 300 s onto the rotarod that accelerated from 4 to 40 rpm. In addition, the latency time for animals falling from the rod was calculated before and after toxin injection, from the beginning of acceleration to falling onto the drum, and the maximum cutoff time was 300 s.

LVA Cav channels = assay: whole-cell voltage-clamp, LVA Cav currents of rat DRG neurons; assay type: cell-based; conditions: 10 μM, n = 3

CC(C)C[C@@H]1NC(=O)[C@H](CCCCN)NC(=O)[C@H](Cc2ccc(O)cc2)NC(=O)[C@@H]2CSSC[C@@H]3NC(=O)[C@H](Cc4ccc(O)cc4)NC(=O)[C@H](Cc4ccccc4)NC(=O)CNC(=O)[C@H](C)NC(=O)[C@H](CSSC[C@H](NC(=O)[C@@H](N)CC(C)C)C(=O)N[C@@H](CO)C(=O)N[C@@H](CCCNC(=N)N)C(=O)N[C@@H](CCC(=O)O)C(=O)NCC(=O)N[C@@H](CCC(=O)O)C(=O)N[C@@H](Cc4ccccc4)C(=O)N2)NC(=O)[C@H](CSSC[C@@H](C(=O)N[C@@H](Cc2ccc(O)cc2)C(=O)N[C@@H](CCCNC(=N)N)C(=O)N[C@@H](CC(N)=O)C(=O)O)NC(=O)[C@H](Cc2c[nH]cn2)NC(=O)[C@H](CC(C)C)NC(=O)[C@H](C(C)C)NC(=O)[C@H](Cc2ccccc2)NC(=O)[C@H](C)NC(=O)[C@H](CCCCN)NC3=O)NC(=O)[C@H](CCCCN)NC(=O)[C@H](CCCNC(=N)N)NC1=O [JZTX-X, Jingzhaotoxin-X] (H-LCSREGEFCYKLRKCCAGFYCKAFVLHCYRN-OH; disulfide 2-16, 9-21, 15-28; N-terminus assumed)
effect on Nav1.5 channel (Nav1.5): negligible effect; also recorded: did not affect the currents
effect on motor coordination ([1]; intrathecal and intraplantar): made no difference to the motor coordination in mice
time on accelerating rotarod ([1]; intraplantar, vehicle 118.8 ± 9.8 s): 113.4 ± 8.3 s
time on accelerating rotarod ([1]; intrathecal, vehicle 117.9 ± 7.6 s): 117.5 ± 7.8 s
inhibition of LVA Cav current (LVA Cav channels): less than 5%
